Our source for the IC50 values is patent EP0938474B1, “CYCLOPROPYLINDOLE COMPOUNDS AND THEIR USE AS PRODRUGS” (AUCKLAND UNISERVICES LIMITED, priority 1996, dated 1998).

The test system of this experiment is UV4. As to the kind of experiment: Cytotoxicity (growth inhibition), 4 h drug exposure, methylene blue staining. The experiment is classed as cell-based, rodent. The settings on record: Cricetulus griseus; UV4 mutant AA8 line defective in excision repair; 4 hours exposure, then three days incubation. The method, then:
Compounds of the invention were tested for cytotoxicity against four different cell lines, all of which are widely available in the art. AA8 is a wild type rodent cell line. UV4 is a mutant AA8 cell line defective in excision repair, and hypersensitive to many alkylating agents. EMT6 is a widely-used rodent line. SKOV is a human ovarian cell line.
Cell culture assays were performed in 96-well microtitre trays. Compounds of the invention were added in culture medium, using serial two-fold dilutions to provide duplicate cultures at five different concentrations for each of eight drugs (plus eight controls) per tray. Drugs were dissolved in water or DMSO immediately prior to addition to the cell culture. After 4 hours, drugs were removed by washing cultures three times with fresh medium, and the trays were incubated for a futher three days. Cell density was then determined by staining with methylene blue as described previously (Finlay, G. J., et al, Anal. Biochm. 1984, 139, 272-277) and the IC50 was calculated as the drug concentration providing 50% inhibition of growth relative to the controls.

For `COc1cc2cc(C(=O)N3CC(COS(C)(=O)=O)c4c3cc(N)c3ccccc43)[nH]c2c(OC)c1OC` (stereo not shown) [15o, 5-amino-1-[(methanesulfonyloxy)methyl]-3-[(5,6,7-trimethoxyindol-2-yl)carbonyl]-1,2-dihydro-3H-benz[e]indole], the IC50 turned out to be 665 nM.

For orientation: IC50 means the point on the concentration scale where inhibition reaches its midpoint.
